Laboratory results reported in publication PMC8286840, “Identifying SARS-CoV-2 antiviral compounds by screening for small molecule inhibitors of Nsp3 papain-like protease” (Biochemical Journal, 2021).
Where a name gives a salt, the structure may show the parent alone. Read-outs that look alike come from different tables or passages of the source. Where a SMILES comes first, the peptide text is derived from it. Side-chain parts run from the residue outwards. The star is where a group is joined. Nicotinoyl = O=C(c1cccnc1)*; Cbz = O=C(OCc1ccccc1)*

How the values were obtained:
[1] = target: T1, SARS-CoV-2 PLpro (nsp3 1564–1878) (Severe acute respiratory syndrome coronavirus 2, UniProt P0DTD1); assay: biochemical; design: FRET-quenched peptide (Pro3) cleavage by PLpro, 10 min pre-incubation, slope over 20 min, normalised to no-compound control; conditions: high concentration screen, read-out: % of control remaining
[2] = target: T1, SARS-CoV-2 PLpro (nsp3 1564–1878); assay: biochemical; design: FRET-quenched peptide (Pro3) cleavage by PLpro, 10 min pre-incubation, slope over 20 min, normalised to no-compound control; conditions: low concentration screen, read-out: % of control remaining

For CCCCCOc1ccccc1C(O)CC#CCCCC(=O)OC (stereo not drawn) [CAY10514], the remaining activity at 3.75 µM ([1]; Well no.=4293) was 98.7% and the remaining activity at 1.25 µM ([2]; Well no.=4293) was 100%.
Work on NC(=O)c1cc(N2CC2)c([N+](=O)[O-])cc1[N+](=O)[O-] [CB 1954] yielded a remaining activity at 3.75 µM ([1]; Well no.=189) of 95.5% and a remaining activity at 1.25 µM ([2]; Well no.=189) of 94.7%.
With C[C@H](N)C(=O)N1C[C@H](CCCB(O)O)[C@](N)(C(=O)O)C1 [CB-1158 (dihydrochloride)] the remaining activity at 3.75 µM ([1]; Well no.=8743) was 99.3% and the remaining activity at 1.25 µM ([2]; Well no.=8743) was 100%.
Nc1ccc(/C=C/c2cccc(C(=O)O)n2)cc1 [CB-7921220] showed a remaining activity at 3.75 µM ([1]; Well no.=7759) of 95.7% and a remaining activity at 1.25 µM ([2]; Well no.=7759) of 103%.
c1cc(OCCN2CCCCC2)cc(-c2n[nH]c3ccc(-c4nnc[nH]4)cc23)c1 [CC-401] gave a remaining activity at 3.75 µM ([1]; Well no.=3027) of 96.9% and a remaining activity at 1.25 µM ([2]; Well no.=3027) of 99.3%.
COc1ccc(N2C(=O)/C(=C\c3ccc([N+](=O)[O-])s3)SC2=S)cc1 [CCF642] showed a remaining activity at 3.75 µM ([1]; Well no.=8774) of 93.7% and a remaining activity at 1.25 µM ([2]; Well no.=8774) of 93.3%.
In the case of Cc1ccc(-n2sc(=O)n(Cc3ccc(F)cc3)c2=O)cc1 [CCG 50014], the remaining activity at 3.75 µM ([1]; Well no.=5215) was 102% and the remaining activity at 1.25 µM ([2]; Well no.=5215) was 105%.
In the case of CC(ONC(=O)c1cc(C(F)(F)F)cc(C(F)(F)F)c1)C(=O)Nc1ccc(Cl)cc1 (stereo not drawn) [CCG-1423], the remaining activity at 3.75 µM ([1]; Well no.=7811) was 101% and the remaining activity at 1.25 µM ([2]; Well no.=7811) was 99.2%.
Cc1cccn2c(=O)c(/C=C(\C#N)c3nc4ccccc4s3)c(Oc3ccc(F)cc3)nc12 [CCG-63808] was tested, and the remaining activity at 3.75 µM ([1]; Well no.=7037) was 101% and the remaining activity at 1.25 µM ([2]; Well no.=7037) was 102%.
Work on O=C(Nc1ccc(Cl)cc1)C1CCCN(C(=O)c2cccc(-c3ccco3)c2)C1 (stereo not drawn) [CCG-203971] yielded a remaining activity at 3.75 µM ([1]; Well no.=6005) of 101% and a remaining activity at 1.25 µM ([2]; Well no.=6005) of 103%.
Work on CC(=O)C1=C(O)C(=O)N(c2ccc(Cl)cc2F)[C@@H]1C1CCCCC1 [CCR2-RA-[R]] yielded a remaining activity at 3.75 µM ([1]; Well no.=8118) of 95.9%, a remaining activity at 3.75 µM ([1]; Well no.=8229) of 91.4% and a remaining activity at 1.25 µM ([2]; Well no.=8118) of 100%. For the same molecule, the remaining activity at 1.25 µM ([2]; Well no.=8229) was 96.6%.
Work on NC(=O)c1cc(-c2ccc(S(=O)(=O)[C@H]3CC[C@H](Nc4ccc(C(F)(F)F)cn4)CC3)cc2)ccn1 [CCR6 inhibitor 1] yielded a remaining activity at 3.75 µM ([1]; Well no.=8609) of 99% and a remaining activity at 1.25 µM ([2]; Well no.=8609) of 103%.
Work on NC1(Cc2ccc(Cl)cc2)CCN(c2ncnc3[nH]ccc23)CC1 [CCT128930] yielded a remaining activity at 3.75 µM ([1]; Well no.=5302) of 95.6% and a remaining activity at 1.25 µM ([2]; Well no.=5302) of 97.5%.
CN(C)c1ccc(-c2nc3ncc(Cl)c(N4CCN(CC(=O)Nc5nccs5)CC4)c3[nH]2)cc1 [CCT129202] showed a remaining activity at 3.75 µM ([1]; Well no.=5253) of 93.9% and a remaining activity at 1.25 µM ([2]; Well no.=5253) of 88.1%.
In the case of Cc1cc(CN2CCN(c3c(Br)cnc4nc(-c5ccc(N6CCN(C)CC6)cc5)[nH]c34)CC2)no1 [CCT137690], the remaining activity at 3.75 µM ([1]; Well no.=5033) was 99.3% and the remaining activity at 1.25 µM ([2]; Well no.=5033) was 98%.
NC(=O)c1cc(S(=O)(=O)Nc2ccc3cc(C4CC4)[nH]c3c2)ccc1O [CD73-IN-1] was tested, and the remaining activity at 3.75 µM ([1]; Well no.=8325) was 94.5% and the remaining activity at 1.25 µM ([2]; Well no.=8325) was 95.7%.
Molecule CN1CCN(c2cccc(Nc3nc4c(-c5ccc(S(C)(=O)=O)cc5)cccn4n3)c2)CC1 [CEP33779] has a remaining activity at 3.75 µM ([1]; Well no.=5129) of 106% and a remaining activity at 1.25 µM ([2]; Well no.=5129) of 104%.
COC(=O)[C@H](CCCCn1cccc1CCC(=O)O)NC(=O)CNC(C)=O [CEP dipeptide 1] gave a remaining activity at 3.75 µM ([1]; Well no.=8606) of 96.4% and a remaining activity at 1.25 µM ([2]; Well no.=8606) of 98.6%.
COc1cc2ncnc(Oc3cccc(NC(=O)Nc4cc(C(C)(C)C(F)(F)F)on4)c3)c2cc1OC [CEP-32496] was tested, and the remaining activity at 3.75 µM ([1]; Well no.=5362) was 96.8% and the remaining activity at 1.25 µM ([2]; Well no.=5362) was 100%.
Work on COc1cccc(-c2cn(-c3ccc(CCN4CCC(O)CC4)cc3)c3ncnc(N)c23)c1 [CGP77675] yielded a remaining activity at 3.75 µM ([1]; Well no.=5466) of 99.9% and a remaining activity at 1.25 µM ([2]; Well no.=5466) of 93.4%.
Molecule Cn1cc(C(F)(F)F)nc1-c1ccc(OCC(O)CNCCOc2ccc(O)c(C(N)=O)c2)cc1 (stereo not drawn) [CGP 20712A methanesulfonate] has a remaining activity at 3.75 µM ([1]; Well no.=585) of 106% and a remaining activity at 1.25 µM ([2]; Well no.=585) of 105%.
O=C1NC(=O)c2cc(Nc3ccc(F)cc3)c(Nc3ccc(F)cc3)cc21 [CGP 53353 - 5,6-bis[(4-Fluorophenyl)amino]-1H-isoindole-1,3(2H)-dione] showed a remaining activity at 3.75 µM ([1]; Well no.=2530) of 102% and a remaining activity at 1.25 µM ([2]; Well no.=2530) of 101%.
With Nc1ncnc2n[nH]c(Nc3ccc(F)cc3)c12 [CGP 57380 - N3-(4-Fluorophenyl)-1H-pyrazolo-[3,4-d]pyrimidine-3,4-diamine] the remaining activity at 3.75 µM ([1]; Well no.=2624) was 92.7% and the remaining activity at 1.25 µM ([2]; Well no.=2624) was 92.8%.
CC(C)(CO)Cc1cc(C(C)(C)C)c(O)c(C(C)(C)C)c1 [CGP-7930] gave a remaining activity at 3.75 µM ([1]; Well no.=43) of 102% and a remaining activity at 1.25 µM ([2]; Well no.=43) of 101%.
With CC(C)(C=O)Cc1cc(C(C)(C)C)c(O)c(C(C)(C)C)c1 [CGP-13501] the remaining activity at 3.75 µM ([1]; Well no.=91) was 105% and the remaining activity at 1.25 µM ([2]; Well no.=91) was 105%.
In the case of O=C1CSC(c2ccccc2Cl)c2cc(Cl)ccc2N1 (stereo not drawn) [CGP-37157], the remaining activity at 3.75 µM ([1]; Well no.=5845) was 106% and the remaining activity at 1.25 µM ([2]; Well no.=5845) was 106%.
CC[C@H](C)[C@H](NC(=O)[C@@H]1CCCN1C(=O)[C@H](Cc1cnc[nH]1)NC(=O)[C@H](CCCCNC(=O)[C@H](CCCN=C(N)N)NC(=O)OCc1ccccc1)NC(=O)[C@H](Cc1ccc(O)cc1)NC(=O)c1cccnc1)C(=O)O [CGP-42112] (Nicotinoyl-YK([Arg-Cbz])HPI-OH) gave a remaining activity at 3.75 µM ([1]; Well no.=7652) of 97.2% and a remaining activity at 1.25 µM ([2]; Well no.=7652) of 98%.
Work on CCn1cnc2c(Nc3cccc(Cl)c3)nc(N[C@@H]3CCCC[C@@H]3N)nc21 [CGP-74514A hydrochloride] yielded a remaining activity at 3.75 µM ([1]; Well no.=268) of 94.1% and a remaining activity at 1.25 µM ([2]; Well no.=268) of 92.8%.
With COc1ccc(-n2[nH]c3c(cnc4ccccc43)c2=O)cc1 [CGS 9895] the remaining activity at 3.75 µM ([1]; Well no.=5590) was 96.5% and the remaining activity at 1.25 µM ([2]; Well no.=5590) was 99.6%.
With CCNC(=O)[C@H]1O[C@@H](n2cnc3c(N)nc(NCCc4ccc(CCC(=O)O)cc4)nc32)[C@H](O)[C@@H]1O [CGS 21680 (Hydrochloride)] the remaining activity at 3.75 µM ([1]; Well no.=7001) was 95.1%, the remaining activity at 3.75 µM ([1]; Well no.=8417) was 94.7% and the remaining activity at 1.25 µM ([2]; Well no.=7001) was 99.7%. For the same molecule, the remaining activity at 1.25 µM ([2]; Well no.=8417) was 95.9%.
With CN1CCN(c2nc3cc(C(F)(F)F)ccc3n3cccc23)CC1 [CGS-12066A maleate] the remaining activity at 3.75 µM ([1]; Well no.=437) was 101% and the remaining activity at 1.25 µM ([2]; Well no.=437) was 102%.
Nc1nc2ccc(Cl)cc2c2nc(-c3ccco3)nn12 [CGS-15943] showed a remaining activity at 3.75 µM ([1]; Well no.=393) of 104% and a remaining activity at 1.25 µM ([2]; Well no.=393) of 104%.
For CCNC(=O)[C@H]1O[C@@H](n2cnc3c(N)nc(NCCc4ccc(CCC(=O)O)cc4)nc32)[C@H](O)[C@@H]1O [CGS-21680 hydrochloride], the remaining activity at 3.75 µM ([1]; Well no.=391) was 99.7% and the remaining activity at 1.25 µM ([2]; Well no.=391) was 105%.
With CS(=O)(=O)N1CCc2c(-c3cnc(N)nc3)nc(N3CCOCC3)nc21 [CH5132799] the remaining activity at 3.75 µM ([1]; Well no.=5348) was 96% and the remaining activity at 1.25 µM ([2]; Well no.=5348) was 95.8%.
